Results: patent publication US20220281888A1, “BICYCLIC CARBOXYLATES AS MODULATORS OF TRANSPORTERS AND USES THEREOF” (NIROGY THERAPEUTICS, INC., priority 2019, published 2022)

Columns and labels:
[1] = system: panel of solid and haematological tumor cell lines (e.g., Hs578t, SiHa, MDA-MB-231); assay: MTS cell proliferation assay; assay type: cell-based; conditions: 72-96 hours incubation, 10 mM lactate medium or RPMI 1640 medium, cell line not given, read-out: Cytotoxicity [IC50: μM]
Protocol: The anti-proliferation effect of MCT inhibition was investigated across a panel of solid and haematological tumor cell lines. Cells were routinely cultured in their appropriate growth medium. On day 1, between 10,000-25,000 cells/well (e.g., Hs578t: 15,000 cells/well, SiHa: 10,000 cells/well, and MDA-MB-231: 25,000 cells/well) were plated into 96-well plates. 100 μL of phosphate buffered saline solution was added to the external wells to prevent media evaporation. Plates were incubated in growth medium overnight at 37° C. in the presence of 5% CO2. On day 2, dry weight compound stocks were dissolved to a concentration of 10 mM in 100% DMSO. Compounds were further diluted in the assay medium; 10 mM lactate medium (without glucose, pyruvate, and glutamine) or RPMI 1640 medium (without pyruvate and glutamine) to generate a final dose range of 1 nM to 10 μM. Growth medium in the 96-well plate was replaced with the assay medium (10 mM lactate medium or RPMI medium or appropriate medium), and compounds were added to each well in the plate at different concentrations via serial dilution or pre-prepared solutions in assay medium. […] The absorbance of the plates was read on a Spectramax M5e plate reader using […] measurement wavelength. Dose response curves were plotted and IC50 values were calculated using GraphPad Prism. […]

[2] = system: monocarboxylate transporters; assay: Lactate detection assay in tumor cell lines; assay type: cell-based; conditions: intracellular lactate, Lactate-glo kit, 24 hours incubation; cell line not stated
Protocol: Cells are maintained in their appropriate growth medium (RPMI medium with 2 g/L glucose, 2 mM L-glutamine supplemented with 10% FBS and P/S (growth medium). 15,000-25,000 cells were seeded into white 96-well plates in growth medium and incubated for 24 hours at 37° C. and 5% CO2. A duplicate plate was also seeded for normalization by an MTS assay. Dry weight compound stocks were dissolved to a concentration of 10 mM in 100% DMSO. Compounds were further diluted in the assay medium (Lactate media: 10 mM lactate, 5% FBS, and 1×P/S; Glucose media: RPMI, 5% FBS, and 1×P/S). Growth media was changed 24 hours later to assay medium containing 10 μM compound or vehicle (DMSO) control and incubated for 24 hours. Conditioned media was collected and the cells were washed in 200 μL ice-cold PBS. […] After a 5 minute incubation, 12.5 μL Neutralization solution (1 M Trizma) is incubated for 1 minute. Intracellular lactate measurements were performed using a Lactate-glo kit (Promega). Briefly, the lactate detection reagent is mixed immediately before use and 50 μL is pipetted into each well and incubated at room temperature for 1 hour. Lactate is oxidized by enzymatic reactions to generate light. The luminescence is recorded using a Spectramax M5e plate reader and the concentration of lactate is determined using a known concentration of spiked lactate in PBS using GraphPad Prism.

Molecule COc1cc(Cl)ccc1NC(=O)N(C)c1cc2oc(=O)c(C(=O)O)cc2s1 [Example 18, 2-(3-(4-chloro-2-methoxyphenyl)-1-methylureido)-5-oxo-5H-thieno[3,2-b]pyran-6-carboxylic acid] has an IC50 [1] of under 1 µM.
CN(C(=O)Nc1ccc(Cl)c(Cl)c1)c1cc2oc(=O)c(C(=O)O)cc2s1 [Example 39, 2-(3-(3,4-dichlorophenyl)-1-methylureido)-5-oxo-5H-thieno[3,2-b]pyran-6-carboxylic acid] was tested, and the IC50 [1] was under 1 µM.
Work on CN(C(=O)NC1CCCCC1)c1cc2oc(=O)c(C(=O)O)cc2s1 [Example 7, 2-(3-cyclohexyl-1-methylureido)-5-oxo-5H-thieno[3,2-b]pyran-6-carboxylic acid] yielded an IC50 [2] of under 1 µM.
Work on CCOc1ccccc1NC(=O)N(C)c1cc2oc(=O)c(C(=O)O)cc2s1 [Example 10, 2-(3-(2-ethoxyphenyl)-1-methylureido)-5-oxo-5H-thieno[3,2-b]pyran-6-carboxylic acid] yielded an IC50 [2] of under 1 µM.
